# Source: patent US20090149387A1, “Use of GLP-1 Peptides” (Novo Nordisk A/S, priority 1996, published 2009)
# No end group written: not given here.
# Legend:
# rats = details: Tang-Christensen et al. 1996, route not stated; cited from earlier work
# Mice [1] = experiment: Appetite suppression in mice by subcutaneous synthetic GLP-1(7-36)amide: Complan consumption (Example 4); assay type: in vivo; details: p<0.001
# Procedure: The test method was as described in Example 3 except that the mice were pre-exposed to formula milk (Complan®—a nutritionally complete infant milk substitute) for one day, then fasted one day. On the test day, consumption of Complan® was measured for each mouse during a 10 min period.
# Mice were tested for appetite suppression by subcutaneous injection of GLP-1(7-36)amide dissolved in phosphate buffered saline.
# Mice [2] = experiment: Appetite suppression in mice: sucrose consumption measured immediately after intraperitoneal injection (Example 2); assay type: in vivo; details: 85 micrograms (equivalent to 3.4 mg/kg) intraperitoneally, tested immediately after injection, 10 minute period, versus vehicle, p-value 0.002
# Procedure: Mice were deprived of their normal food for two days and given free access to a 20% sucrose solution on the first day of food deprivation. After the two day food deprivation period, the mice were injected intraperitoneally with 0.5 ml of a solution containing the test substance. Immediately after injection, individual mice were placed in one of eight 15 cm square test boxes with a stainless steel grid floor and a glass drinking tube which projected into the box. […] Consumption of the sucrose solution was measured over a 10 minute period by electronically recording the total amount of contact with the sucrose solution during the test session. The degree of appetite suppression produced by a given test substance was determined by statistical comparison of the mean duration of sucrose consumption by control (vehicle treated) mice with that of mice treated with a test substance. The degree of appetite suppression in a treated group of mice was expressed as percent difference between the test and control group's response duration means. […]
# Healthy human volunteers = experiment: Effect of iv infused GLP-1(7-36)amide on food intake, satiety, hunger, fullness and appetite in normal human subjects (double-blind crossover); assay type: in vivo; details: iv infusion 50 pmol/(kg·h) 9.00-15.00, 20 healthy subjects, versus saline
# Text: Healthy human volunteers (20 subjects) were in a double-blind crossover trial given an iv infusion of 50 pmol/(kg·h) of GLP-1(7-36)amide or saline on separate, but otherwise identical experimental days. The infusion was started at 9.00 and lasted until 15.00. At 9.45 the subjects received a fixed amount of breakfast and at 14.15 they had lunch of an identical composition but ad libitum. The subjects rated their feeling of satiety, hunger, fullness and appetite on a visual analogue scale every half hour. The results are given below:
# The energy intake of each subjects was measured. The intakes were 3.9 MJ with GLP-1 and 4.3 MJ with Saline resulting in a p-value of 0.009.
substance,measurement,setting,value
"GLP-1(1-36)amide (HDEFERHAEGTFTSDVSSYLEGQAAKEFIAWLVKGR-NH2; UniProt P01275 92-127, looked up, fragment) [GLP-1 fragment 1-36, C-terminal amide; literature result]",Effect on food intake,rats,no effect on food intake
GLP-1(7-36)amide,Suppression of feeding (Complan consumption),"Mice [1]; 1 mg/kg subcutaneous, 30 min after injection",45%
same,"Maximum effect, suppression of feeding (Complan consumption)",Mice [1]; 20 mg/kg subcutaneous (highest dose tested),60%
same,Suppression of sucrose consumption,Mice [2],60%
GLP-1: literature GLP-1 of b7; b6: proglucagon fragment 72-108 commonly referred to as GLP-1(1-37) or just GLP-1,Satiety (visual analogue scale rating),Healthy human volunteers; p = 0.006,"GLP-1 > Saline, p = 0.006"
same,Appetite (visual analogue scale rating),Healthy human volunteers; p = 0.007,"GLP-1 < Saline, p = 0.007"
same,Hunger (visual analogue scale rating),Healthy human volunteers; p = 0.007,"GLP-1 < Saline, p = 0.007"
same,Fullness (visual analogue scale rating),Healthy human volunteers; p = 0.010,"GLP-1 > Saline, p = 0.010"
